Consider 10 molecules from patent publication US12264173B2 (GILEAD SCIENCES, INC., priority 2020, dated 2025).

Holding throughout (assay type): cell-based
One experiment deals with RSV strain A2. Put plainly: microbe, parasite or virus in culture. The conditions noted are these: Table 3, HEp-2 cells, RSV A2, 4 days, read-out: RSV HEp-2 EC50. The method, boiled down: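 Cytopathic-effect protection assay: HEp-2 cells (50,000/mL) infected with pre-titered RSV A2 onto 3-fold serial compound dilutions, incubated 4 days at 37° C. Cell viability read by CellTiter-Glo luminescence; percent inhibition derived against 0% and 100% virus-inhibition controls.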

For another experiment, the target named is HCV Rep 1B. Briefly: HCV Rep 1B EC50 (replicon luciferase). To be noted: Table 4; replicon cells, 3 days; read-out: HCV Rep 1B EC50. As for the experimental part: (§1) Compounds were serially diluted in ten steps of 1:3 dilutions in 384-well plates. All serial dilutions were performed in four replicates per compound within the same 384-well plate. […] To each well of a black polystyrene 384-well plate (Greiner Bio-one, Monroe, NC), 90 μL of cell culture medium (without Geneticin) containing 2000 suspended HCV replicon cells was added with a Biotek μFlow workstation. For compound transfer into cell culture plates, 0.4 μL of compound solution from the compound serial dilution plate was transferred to the cell culture plate on a Biomek FX workstation. The DMSO concentration in the final assay wells was 0.44%. The plates were incubated for 3 days at 37° C. with 5% CO2 and 85% humidity. The HCV replicon assay was a multiplex assay, able to assess both cytotoxicity and antireplicon activity from the same well. The CC50 assay was performed first. The media in the 384-well cell culture plate was aspirated, and the wells were washed four times with 100 μL of PBS each, using a Biotek ELX405 plate washer. A volume of 50 μL of a solution containing 400 nM calcein AM (Anaspec, Fremont, CA) in 1×PBS was added to each well of the plate with a Biotek μFlow workstation. The plate was incubated for 30 min at room temperature before the fluorescence signal (excitation 490 nm, emission 520 nm) was measured with a Perkin-Elmer Envision plate reader. The EC50 assay was performed in the same wells as the CC50 assay. The calcein-PBS solution in the 384-well cell culture plate was aspirated with a Biotek ELX405 plate washer. A volume of 20 μL of Dual-Glo luciferase buffer (Promega, Madison, WI) was added to each well of the plate with a Biotek μFlow Workstation. The plate was incubated for 10 min at room temperature. A volume of 20 μL of a solution containing a 1:100 mixture of Dual-Glo Stop & Glo substrate (Promega, Madison, WI) and Dual-Glo Stop & Glo buffer (Promega, Madison, WI) was added to each well of the plate with a Biotek μFlow Workstation. The plate was then incubated at room temperature for 10 min before the luminescence signal was measured with a Perkin-Elmer Envision Plate Reader.
For orientation: In antiviral work, replicon cells carry a viral genome segment that copies itself.

A further experiment addresses HCV Rep 2A. Briefly: HCV Rep 2A EC50 (replicon luciferase). The conditions noted are these: Table 4; replicon cells, 3 days; read-out: HCV Rep 2A EC50. As for the experimental part:
as §1

The subject of the next experiment is RSV A2. Briefly: RSV NHBE EC50 (RSV A2 antiviral assay in NHBE cells). The conditions noted are these: read-out: RSV NHBE EC50. In a few lines:
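Read-out: CellTiter-Glo luminescence of cell viability after 4 days at 37° C. Primary NHBE cells, 7,500/well, 3-fold compound dilutions, 0.05% DMSO, infected with RSV A2 (1×10^4.5 TCID/mL).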

In another experiment the test system is HRV16. Briefly: HRV16 HeLa EC50 (cytopathic effect in H1-HeLa cells). The conditions noted are these: read-out: HRV16 HeLa EC50. In a few lines: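 Read-out is luminescent cell viability (CellTiter-Glo) after 96 h of infection at 33 °C, scaled between uninfected and infected-untreated wells. Before infection with titrated virus, compounds went onto H1-HeLa cells as triplicate 3-fold dilution series.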
For orientation: Damage to the host cells serves as the signal in cytopathic effect assays.

The test system of experiment [1] is Dengue serotype 2 New Guinea C (NGC) strain. Briefly: DENV-2 Huh-7 EC50 (qPCR in Huh7 cells). The procedure: Huh7 (Human hepatocarcinoma 7) cells were maintained in 10% FCS-containing DMEM complete media. On the day of the assay, cells were trypsinized (0.1% Trypsin-EDTA), washed and infected for 2 hours in serum-free DMEM with Dengue serotype 2 New Guinea C (NGC) strain at MOI=0.1 with gentle agitation at 37° C. After 2 hours, cells were washed with serum-free media and suspended in 10% FCS-containing DMEM (Gibco, supplemented with sodium pyruvate, NEAA, Penicillin-Streptomycin). 10^5 cells were plated in triplicate in 96-well plates with compounds dispensed at graded doses (Hewlett-Packard D300 Digital Dispenser). All wells were normalized to 0.25% DMSO. At 48 hours, cells were washed with 1×PBS and all supernatants removed. Total RNA was extracted using RNEasy 96 plates (Qiagen) and used to generate first-strand cDNA using XLT cDNA 5× Supermix (QuantaBio). cDNA was used as a template in a Taqman qPCR duplex reaction specific to DENV2 viral and GAPDH gene expression. EC50 values were determined using Prism Graphpad software, with normalization to a positive control and no compound negative control wells.

The test system of the next experiment is DENV2 replicon. Briefly: DENV-2 Huh-7 Rep EC50 (replicon luminescence). In a few lines:
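EC50 derived from luminescence dose-response, normalised to DMSO-only 0% inhibition wells, after 1.5 h with EnduRen substrate. Compounds were first exposed for 48 h at 37° C to DENV2 replicon Huh-7 cells (5,000/well).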

Setting [2] is: Table 3, NHBE cells, RSV A2, 4 days.
[3] abbreviates: Table 3, Huh-7 DENV2 replicon cells, 48 hours, read-out: DENV-2 REP Huh7 EC50.
Where [4] appears, read: 96 h, Table 3, H1-HeLa cells, 96 h.
[5] abbreviates: human respiratory syncytial virus, HEp-2, 96 h.
Setting [6] is: human respiratory syncytial virus, NHBE, 96 h, Table 3, NHBE cells, RSV A2, 4 days.
The mark [7] stands for this setting: Dengue virus, DENV2, Huh-7, 48 h, read-out: DENV-2 REP Huh7 EC50.

Where two headings read alike, the source gives them in different places. A value given as a limit tells only on which side of the number the result lay.

One may read the EC50 as the concentration needed to bring the measured effect to its halfway point. As for `CC(C)C(=O)O[C@H]1[C@H](c2ccc3c(N)ncnn23)O[C@](C#N)(COP(=O)(N[C@@H](C)C(=O)OC2COC2)Oc2ccccc2)[C@H]1OC(=O)C(C)C` (single isomer, unassigned) [Example 185], the 50% effective concentration (EC50) in the experiment with RSV strain A2 turned out to be 26 nM; at HCV Rep 1B it was 217 nM; on HCV Rep 2A, 730 nM.

For `CC(C)C(=O)OC1C(c2ccc3c(N)ncnn23)OC(C#N)(COP(=O)(NC(C)C(=O)OC2CCN(C)C2)Oc2ccccc2)C1OC(=O)C(C)C` (single isomer, unassigned) [Example 234], the EC50 in the experiment with RSV strain A2 turned out to be 57 nM; with RSV A2 (setting [2]), 30 nM; on HCV Rep 1B, 905 nM; on HCV Rep 2A, 1820 nM.

For `CCOC(=O)[C@H](C)N[P@](=O)(OC[C@@]1(C#N)O[C@@H](c2ccc3c(N)ncnn23)[C@H](O)[C@@H]1O)Oc1ccccc1` [Example 29, Ethyl ((S)-(((2R,3S,4R,5S)-5-(4-aminopyrrolo[2,1-f][1,2,4]triazin-7-yl)-2-cyano-3,4-dihydroxytetrahydrofuran-2-yl)methoxy)(phenoxy)phosphoryl)-L-alaninate], the EC50 in the experiment with HRV16 (HeLa, Table 5 comparative activity, 2',3'-OH vs -OC(O)iPr) was determined as 678 nM; in the experiment with RSV A2 (human respiratory syncytial virus, NHBE, Table 5 comparative activity, 2',3'-OH vs -OC(O)iPr) it was 932 nM; in experiment [1] (Dengue virus, Huh-7, Table 5 comparative activity, 2',3'-OH vs -OC(O)iPr, read-out: DENV Huh7 EC50) it was 1880 nM; in the experiment with DENV2 replicon (Dengue virus, DENV2, Huh-7, read-out: DENV Rep EC50), 36100 nM.

For `CCC(=O)O[C@H]1[C@H](c2ccc3c(N)ncnn23)O[C@](C#N)(CO[P@](=O)(N[C@@H](C)C(=O)OCC2CC2)Oc2ccccc2)[C@H]1OC(=O)CC` [Example 100], the EC50 was found to be 147 nM with HRV16 (Table 3, H1-HeLa cells, 96 h); 58 nM with RSV strain A2; 13 nM with RSV A2 (setting [2]); 1130 nM in experiment [1] (Table 3, Huh7 cells, 48 hours, read-out: DENV-2 Huh7 EC50); 18800 nM with DENV2 replicon (setting [3]).

For the molecule `COCCOP(=O)(N[C@@H](C)C(=O)OC(C)C)OC[C@@]1(C#N)O[C@@H](c2ccc3c(N)ncnn23)[C@H](OC(=O)C(C)C)[C@@H]1OC(=O)C(C)C` (stereo partly drawn) [Example 214, (2R,3S,4S,5S)-5-(4-aminopyrrolo[2,1-f][1,2,4]triazin-7-yl)-2-cyano-2-((((((S)-1-isopropoxy-1-oxopropan-2-yl)amino)(2-methoxyethoxy)phosphoryl)oxy)methyl) tetrahydrofuran-3,4-diyl bis(2-methylpropanoate)], the EC50 with HRV16 (setting [4]) was 31300 nM; in the experiment with RSV strain A2 (setting [5]) it was more than 41700 nM; with RSV A2 (setting [6]), more than 3890 nM; in the experiment with DENV2 replicon (Dengue virus, DENV2, Huh-7, 48 h, read-out: DENV-2 REP Huh7 EC50, Table 3, Huh-7 DENV2 replicon cells, 48 hours), more than 50000 nM.

For the molecule `CCC(=O)O[C@H]1[C@H](c2ccc3c(N)ncnn23)O[C@](C#N)(COP(=O)(N[C@@H](C)C(=O)OC(C)C)Oc2ccc(OCCOC)cc2)[C@H]1OC(=O)CC` (stereo partly drawn) [Example 215, (2R,3S,4S,5S)-5-(4-aminopyrrolo[2,1-f][1,2,4]triazin-7-yl)-2-cyano-2-((((((S)-1-isopropoxy-1-oxopropan-2-yl)amino)(4-(2-methoxyethoxy)phenoxy)phosphoryl)oxy)methyl)tetrahydrofuran-3,4-diyl dipropionate], the EC50 in the experiment on HRV16 (setting [4]) is 1020 nM; in the experiment on RSV strain A2 (setting [5]), 378 nM; in the experiment on RSV A2 (setting [6]), 142 nM; with DENV2 replicon (setting [7]), 27200 nM.

Regarding `CC(C)OC(=O)[C@H](C)N[P@](=O)(OC[C@@]1(C#N)O[C@@H](c2ccc3c(N)ncnn23)[C@H](OC(=O)CN2CCOCC2)[C@@H]1OC(=O)CN1CCOCC1)Oc1ccccc1` [Example 216, (2R,3S,4S,5S)-5-(4-aminopyrrolo[2,1-f][1,2,4]triazin-7-yl)-2-cyano-2-((((S)-(((S)-1-isopropoxy-1-oxopropan-2-yl)amino)(phenoxy)phosphoryl)oxy)methyl) tetrahydrofuran-3,4-diyl bis(2-morpholinoacetate)], the EC50 is 3500 nM in the experiment with HRV16 (setting [4]), 262 nM in the experiment on RSV strain A2 (setting [5]), 3870 nM in the experiment with RSV A2 (setting [6]) and 31200 nM in the experiment on DENV2 replicon (setting [7]).

Take `CCC(=O)O[C@H]1[C@H](c2ccc3c(N)ncnn23)O[C@](C#N)(COP(=O)(N[C@@H](C)C(=O)OC(C)C)Oc2ccc(C[C@H](N)C(=O)OC)cc2)[C@H]1OC(=O)CC` (stereo partly drawn) [Example 217, (2R,3S,4S,5S)-2-((((4-((S)-2-amino-3-methoxy-3-oxopropyl)phenoxy)(((S)-1-isopropoxy-1-oxopropan-2-yl)amino)phosphoryl)oxy)methyl)-5-(4-aminopyrrolo[2,1-f][1,2,4]triazin-7-yl)-2-cyanotetrahydrofuran-3,4-diyl dipropionate]: the EC50 in the experiment on HRV16 (setting [4]) was 11900 nM; with RSV strain A2 (setting [5]), 9840 nM; in the experiment on RSV A2 (setting [6]) it was 2060 nM; in the experiment on DENV2 replicon (setting [7]) it was more than 50000 nM.

With `CC(C)C(=O)O[C@H]1[C@H](c2ccc3c(/N=C/N(C)C)ncnn23)O[C@](C#N)(COP(=O)(N[C@@H](C)C(=O)OC2CCOCC2)Oc2ccccc2)[C@H]1OC(=O)C(C)C` (stereo partly drawn) [Example 218, (2R,3S,4S,5S)-2-cyano-5-(4-(((E)-(dimethylamino)methylene)amino)pyrrolo[2,1-f][1,2,4]triazin-7-yl)-2-((((((S)-1-oxo-1-((tetrahydro-2H-pyran-4-yl)oxy)propan-2-yl)amino)(phenoxy)phosphoryl)oxy)methyl) tetrahydrofuran-3,4-diyl bis(2-methylpropanoate)], the EC50 amounted to 112 nM in the experiment on HRV16 (Table 3, H1-HeLa cells, 96 h); 30 nM in the experiment with RSV strain A2; 17 nM in the experiment on RSV A2 (setting [2]); 5510 nM in the experiment on DENV2 replicon (setting [3]).

Take `C/C(=N\c1ncnn2c([C@@H]3O[C@](C#N)(COP(=O)(N[C@@H](C)C(=O)OC4CCOCC4)Oc4ccccc4)[C@@H](OC(=O)C(C)C)[C@H]3OC(=O)C(C)C)ccc12)N(C)C` (stereo partly drawn) [Example 219, (2R,3S,4S,5S)-2-cyano-5-(4-(((E)-1-(dimethylamino)ethylidene)amino)pyrrolo[2,1-f][1,2,4]triazin-7-yl)-2-((((((S)-1-oxo-1-((tetrahydro-2H-pyran-4-yl)oxy)propan-2-yl)amino)(phenoxy)phosphoryl)oxy)methyl) tetrahydrofuran-3,4-diyl bis(2-methylpropanoate)]: the EC50 in the experiment on HRV16 (Table 3, H1-HeLa cells, 96 h) came to 356 nM; in the experiment with RSV strain A2, 67 nM; in the experiment with RSV A2 (setting [2]), 82 nM; in the experiment on DENV2 replicon (setting [3]) it was 16400 nM.
